Data set [1] is described as follows: Pharmacokinetic evaluation in mice. The data set is classed as in vivo, CD1 female mice. Particulars: PO 10 mg/kg vs IV 2 mg/kg. The method, then: CD1 female mice were used as test animals and the drug was administered orally/intravenously (oral dosage: 10 mg/kg, intravenous dosage: 2 mg/kg).
Assay protocol: The oral group consisted of 3 mice per group (vehicle: 10% Hβ-CD-pH7.4), and the intravenous group consisted of 3 mice per group. […] The blood concentrations in plasma after oral and intravenous administration of mice were determined by LC/MS/MS, respectively.

Data set [2] has as its system MSI-H colorectal cancer SW48 cell line. The experiment in a line: 2D anti-proliferative activity, MSI-H SW48 cells (CTG, 5 days). The class given is cell-based. The following applies: for inhibition at 38.15 pM: 0.038146973 nM; for inhibition at 0.000152588 µM: 0.152587891 nM; for inhibition at 0.000610352 µM: 0.610351563 nM; for inhibition at 0.00244141 µM: 2.44140625 nM; for inhibition at 0.00976562 µM: 9.765625 nM; for inhibition at 0.0390625 µM: 39.0625 nM; for inhibition at 0.15625 µM: 156.25 nM; for inhibition at 0.625 µM: 625 nM; for inhibition at […]: 2500 nM; for inhibition at 10 µM: 10000 nM; for IC50: 5 days. As to the method: The molecules of the present disclosure were tested for their anti-proliferative activity against MSI-H tumor cells.
The proliferation of tumor cells with microsatellite instability MSI-H is sensitive to WRN inhibitors, while the proliferation of microsatellite stable (MSS) tumor cells is insensitive to WRN inhibitors. By testing the activities of the two, it is shown that the molecules of the present disclosure have an inhibitory and synthetic lethal effect on WRN at the cellular level.
(§1) The MSI-unstable SW48 colorectal cancer cells were cultured in RPMI 1640 medium containing 10% FBS and 1% penicillin-streptomycin in a 37° C., 5% CO2 constant temperature incubator. A 40 μL cell suspension was added to each well of a 384-well microplate. Using Echo, 40 nL of compounds at different concentrations was dispensed into each well, followed by incubation in a 37° C., 5% CO2 constant temperature incubator for 5 days. Then, 40 μL of CTG solution (Promega, Cat No. G7573) was added to each well, and the plate was incubated in the dark in a 37° C., 5% CO2 constant temperature incubator for 30 minutes. Luminescence was measured using an Envision multi-function microplate reader (Perkin Elmer, Model: Envision 2104). The luminescent signal was proportional to the amount of ATP in the system, and the amount of ATP directly represented the number of living cells in the system.

For a further data set, the target named is WRN helicase (Homo sapiens, UniProt Q14191). The data set can be described thus: WRN helicase hydrolysis/unwinding of double-stranded DNA (fluorescence). The class given is biochemical. As to the method:
The activity of the molecules of the present disclosure on the hydrolysis of double-stranded PP-6TR DNA by WRN helicase was tested.
The working solution and buffer were prepared, and the test compound was dissolved in DMSO followed by a4-fold dilution (with a final concentration of 10 μM as the starting concentration). Then, 0.2 μL of the test compound solution was added to a384-well plate, followed by 10 μL of (2×) WRN enzyme solution. The mixture was incubated in the dark for 30 minutes, after which 10 μL of substrate detection solution containing double-stranded DNA was added to initiate the reaction (DNA length: 19 bp, labeled with TAMRA at the 3′ end and BHQ2 at the 5′ end). The mixture was incubated at room temperature for 60 minutes. The inhibitory activity (IC50) against the WRN enzyme was calculated based on the fluorescence change (Ex530/Em590) between the blank group (DMSO) and the compound group.

For data set [3], the system named is MSS colorectal cancer HT-29 cell line. The data set can be described thus: 2D anti-proliferative activity, MSS HT-29 cells (CTG, 5 days). The following applies: Homo sapiens, 120 h. The data set is classed as cell-based. The method, then:
The molecules of the present disclosure were tested for their anti-proliferative activity against MSS tumor cells.
as §1, with “MSS HT-29” for “MSI-unstable SW48”, “McCoy's 5A” for “RPMI 1640”

Data set [4] in a line: Liver microsome stability test. The data set is classed as in vitro ADME. The following applies: human liver microsomes 0.5 mg/mL, compound 1 μM, NADPH 1 mM, 60 minutes; for microsomal CLint at 1 μM: read-out: Human Clint μL/min/mg Protein. As to the method: The liver microsome stability test of the compounds is as follows:
The compounds of the present disclosure were subjected to a liver microsome stability test. The compounds to be tested were co-incubated with liver microsomes of different species with or without the addition of NADPH. The final concentration of the compounds to be tested in the test system was 1 μM, the final concentration of NADPH was 1 mM, and the final concentration of liver microsomes was 0.5 mg/mL.

Where [5] appears, read: Homo sapiens, read-out: Average value/ Inhibition rate.
Where [6] appears, read: Homo sapiens, read-out: Test 1/ Inhibition rate.
Where [7] appears, read: Homo sapiens, read-out: Test 2/ Inhibition rate.

Read-outs that look alike come from different tables or passages of the source.

Sequence of WRN helicase (Q14191 whole entry): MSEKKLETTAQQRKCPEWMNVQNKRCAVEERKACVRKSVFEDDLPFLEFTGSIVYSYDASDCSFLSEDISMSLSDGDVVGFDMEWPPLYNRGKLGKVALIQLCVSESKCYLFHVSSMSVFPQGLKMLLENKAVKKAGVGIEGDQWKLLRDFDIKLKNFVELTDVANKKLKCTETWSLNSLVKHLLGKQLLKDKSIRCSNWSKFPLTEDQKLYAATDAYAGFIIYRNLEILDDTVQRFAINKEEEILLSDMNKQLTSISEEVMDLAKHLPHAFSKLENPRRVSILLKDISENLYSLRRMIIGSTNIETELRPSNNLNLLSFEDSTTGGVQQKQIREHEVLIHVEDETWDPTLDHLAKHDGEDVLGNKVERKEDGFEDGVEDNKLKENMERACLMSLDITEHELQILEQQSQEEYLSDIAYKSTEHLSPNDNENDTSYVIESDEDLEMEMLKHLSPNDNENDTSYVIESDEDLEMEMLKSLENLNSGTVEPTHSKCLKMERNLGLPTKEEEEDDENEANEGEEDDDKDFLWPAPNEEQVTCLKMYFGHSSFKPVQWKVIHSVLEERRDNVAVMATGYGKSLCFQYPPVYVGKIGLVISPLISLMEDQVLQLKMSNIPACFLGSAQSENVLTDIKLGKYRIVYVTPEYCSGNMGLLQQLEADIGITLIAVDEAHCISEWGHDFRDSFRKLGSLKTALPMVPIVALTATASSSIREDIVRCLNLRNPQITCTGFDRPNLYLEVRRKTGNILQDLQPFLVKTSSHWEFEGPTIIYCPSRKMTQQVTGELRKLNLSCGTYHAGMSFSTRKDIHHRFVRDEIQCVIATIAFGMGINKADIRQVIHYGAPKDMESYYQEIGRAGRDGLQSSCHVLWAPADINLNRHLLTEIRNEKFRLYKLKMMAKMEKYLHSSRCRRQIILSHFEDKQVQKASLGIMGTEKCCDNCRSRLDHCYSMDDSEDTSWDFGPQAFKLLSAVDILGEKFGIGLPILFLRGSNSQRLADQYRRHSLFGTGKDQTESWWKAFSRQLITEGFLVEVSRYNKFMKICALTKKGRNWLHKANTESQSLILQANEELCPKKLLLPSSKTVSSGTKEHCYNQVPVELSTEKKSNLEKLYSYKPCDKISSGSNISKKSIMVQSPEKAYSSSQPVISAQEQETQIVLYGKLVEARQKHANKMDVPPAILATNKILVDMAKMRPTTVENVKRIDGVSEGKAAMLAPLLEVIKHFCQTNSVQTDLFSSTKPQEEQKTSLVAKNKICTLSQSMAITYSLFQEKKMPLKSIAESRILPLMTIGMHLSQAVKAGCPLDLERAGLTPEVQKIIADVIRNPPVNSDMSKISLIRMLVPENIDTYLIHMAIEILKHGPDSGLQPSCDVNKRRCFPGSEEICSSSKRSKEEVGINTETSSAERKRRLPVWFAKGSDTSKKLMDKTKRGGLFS

Compound `CCc1c(N2CCN(C(=O)c3ncccc3O)CC2)c(=O)n2nc(-c3cccnc3)nc2n1CC(=O)Nc1ccc(C(F)(F)F)cc1C` [Compound A1, reference compound] displayed a F in data set [1] of 14%. In data set [2] (setting [5]), the inhibition at 38.15 pM was -0.406%, the inhibition at 0.000152588 µM is -9.39%, the inhibition at 0.000610352 µM was -2.32% and the inhibition at 0.00244141 µM is -11.4%. Further, in data set [2] (setting [5]), the inhibition at 0.00976562 µM is -4.03%, the inhibition at 0.0390625 µM is -11.9%, the inhibition at 0.15625 µM turned out to be 6.4% and the inhibition at 0.625 µM is 97.4%. Also, in data set [2] (setting [5]), the inhibition at […] was found to be 101% and the inhibition at 10 µM came out at 102%. Further, in data set [2] (setting [6]), the inhibition at 38.15 pM is -2%, the inhibition at 0.000152588 µM is -13.2%, the inhibition at 0.000610352 µM is -2.37% and the inhibition at 0.00244141 µM was -13.8%. Moreover, in data set [2] (setting [6]), the inhibition at 0.00976562 µM is 0.0311%, the inhibition at 0.0390625 µM was -12.6%, the inhibition at 0.15625 µM is -2.14% and the inhibition at 0.625 µM amounted to 97.9%. Further, in data set [2] (setting [6]), the inhibition at […] turned out to be 99.8% and the inhibition at 10 µM was 101%. Besides, in data set [2] (setting [7]), the inhibition at 38.15 pM turned out to be 1.19%, the inhibition at 0.000152588 µM was -5.61%, the inhibition at 0.000610352 µM is -2.27% and the inhibition at 0.00244141 µM is -8.9%. For the same compound, in data set [2] (setting [7]), the inhibition at 0.00976562 µM is -8.09%, the inhibition at 0.0390625 µM is -11.1%, the inhibition at 0.15625 µM turned out to be 14.9% and the inhibition at 0.625 µM is 96.9%. Further, in data set [2] (setting [7]), the inhibition at […] was 101% and the inhibition at 10 µM was determined as 102%. The same compound returned a concentration for half-maximal inhibition (IC50) in data set [2] (Homo sapiens, 120 h) of 261 nM.

`CCc1c(N2CCN(C(=O)c3ncccc3O)CC2)c(=O)n2nc(C3=CCOCC3)nc2n1CC(=O)Nc1ccc(C(F)(F)F)c2c1OCCO2` [Compound H7]: the IC50 in data set [2] (Homo sapiens, 120 h) turned out to be 1940 nM; at WRN helicase, 9.5 nM.

`CCc1c(N2CCN(C(=O)c3ncccc3O)CC2)c(=O)n2nc(-c3cncs3)nc2n1CC(=O)Nc1ccc(C(F)(F)F)cc1Cl` [Compound P5]: in data set [2] (Homo sapiens, 120 h), the IC50 was found to be 192 nM.

On to `CCc1c(N2CCN(C(=O)c3ncnc(C)c3O)CC2)c(=O)n2nc(C3=CCOCC3)nc2n1CC(=O)Nc1ccc(C(F)(F)F)c2scnc12` [Compound H21], for which, in data set [3], the IC50 is over 10000 nM. The same compound yielded an IC50 in data set [2] (Homo sapiens, 120 h) of 175 nM. Further, in data set [4], the intrinsic metabolic clearance (CLint scaled) at 1 μM was 6 mL/min/kg and the microsomal CLint at 1 μM was 4.8 µL/min/mg.

In turn, `CCc1c(N2CCN(C(=O)c3ncnc(C)c3O)CC2)c(=O)n2nc(C3=CCOCC3)nc2n1CC(=O)Nc1ccc(Cl)c2ccoc12` [Compound H26] displayed a 50% inhibitory concentration (IC50) in data set [2] (Homo sapiens, 120 h) of 137 nM.

Regarding `CCc1c(N2CCN(C(=O)c3ncnc(C)c3O)CC2)c(=O)n2nc(C3=CCOCC3)nc2n1CC(=O)Nc1ccc2c3c1ncn3CCC2` [Compound H23], the half-maximal inhibitory concentration (IC50) was over 10000 nM in data set [3] and over 10000 nM in data set [2] (Homo sapiens, 120 h).

As for `CCc1c(N2CCN(C(=O)c3ncnc(C)c3O)CC2)c(=O)n2nc(C3=CCC(OC)CC3)nc2n1CC(=O)Nc1ccc(C(F)(F)F)c2ccsc12` (centres unmarked) [Compound H12], the half-maximal inhibitory concentration (IC50) in data set [3] was over 10000 nM. Further, the concentration for half-maximal inhibition (IC50) in data set [2] (Homo sapiens, 120 h) is 126 nM. Besides, in data set [4], the CLint scaled at 1 μM worked out at 28 mL/min/kg and the microsomal CLint at 1 μM came out at 22 µL/min/mg.

Regarding `CCc1c(N2CCN(C(=O)c3ncnc(C)c3O)C[C@@H]2C)c(=O)n2nc(C3=CCOCC3)nc2n1CC(=O)Nc1ccc(C(F)(F)F)c2ccsc12` [Compound H17], the IC50 in data set [3] is over 10000 nM; in data set [2] (Homo sapiens, 120 h), 123 nM.

At WRN helicase, `CCc1c(N2CC3(CN(C(=O)c4ncnc(C)c4O)C3)C2)c(=O)n2nc(C3=CCOCC3)nc2n1CC(=O)Nc1ccc(C(F)(F)F)cc1Cl` [Compound P1] had an IC50 of 3890 nM.

On to `CCc1c(N2CCN(C(=O)c3ncccc3O)CC2)c(=O)n2nc(C3=CCOCC3)nc2n1CC(=O)NC12CC(C(F)(F)F)(C1)C2` [Compound A2, reference compound], for which the half-maximal inhibitory concentration (IC50) in data set [2] (Homo sapiens, 120 h) stood at 2540 nM; against WRN helicase, 16 nM.

At WRN helicase, `CCc1c(N2CCN(C(=O)c3ncccc3O)CC2)c(=O)n2nc(C3=CCS(=O)(=O)CC3)nc2n1CC(=O)Nc1ccc(C(F)(F)F)cc1Cl` [Compound P6] came in with an IC50 of 3.5 nM.

Turning to `CCc1c(N2CCN(C(=O)c3ncccc3O)CC2)c(=O)n2nc(-c3cccs3)nc2n1CC(=O)Nc1ccc(C(F)(F)F)cc1Cl` [Compound P4], the IC50 is 135 nM in data set [2] and 1.9 nM at WRN helicase.

`CCc1c(N2CCN(C(=O)c3ncnc(C)c3O)CC2)c(=O)n2nc(C3=CCOCC3)nc2n1CC(=O)Nc1ccc2c(C(F)(F)F)c[nH]c2c1` [Compound H6] yielded a half-inhibitory concentration (IC50) against WRN helicase of 625 nM.

For the compound `CCc1c(N2CCN(C(=O)c3ncnc(C)c3O)CC2)c(=O)n2nc(C3=CCOCC3)nc2n1CC(=O)Nc1ccc(Br)c2ccoc12` [Compound H25], 125 nM corresponded to half-maximal inhibition in data set [2] (Homo sapiens, 120 h) (IC50).

Take `CCc1c(N2CCN(C(=O)c3ncnc(C)c3O)CC2)c(=O)n2nc(C3=CCOCC3)nc2n1CC(=O)Nc1ccc2c(c1)NCC2(O)C(F)(F)F` (centres unmarked) [Compound H5]: the concentration for half-maximal inhibition (IC50) against WRN helicase was 295 nM.

In data set [3], `Cc1ncnc(C(=O)N2CCN(c3c(C4CC4)n(CC(=O)Nc4ccc(C(F)(F)F)c5ccsc45)c4nc(C5=CCOCC5)nn4c3=O)CC2)c1O` [Compound H18] registered an IC50 of over 10000 nM.

For the compound `CCc1c(N2CCN(C(=O)c3ncnc(C)c3O)CC2)c(=O)n2nc(C3=CCOCC3)nc2n1CC(=O)Nc1ccc2c3c1ccn3CCC2` [Compound H24], it took 474 nM to reach half-maximal inhibition in data set [2] (Homo sapiens, 120 h) (IC50).
